Source: patent US6521265B1, “Method for applying a blood clotting agent” (Biolife, L.L.C., priority 2000, dated 2003)

Test system: blood flowing from an open wound
Test: Potassium ferrate used on blood flowing from an open wound
Details: in vivo
Excerpt: The apparent chemical ferrate reaction with water found in blood is as follows:
As provided by the above compounds, a method of arresting blood and body fluid flow from an open skin wound is provided. An effective amount of any of the above salt ferrates, and preferably potassium ferrate in powder form, is applied directly onto the wound to interact with flowing blood or body fluid to accelerate its clotting.

potassium ferrate
clotting of blood flowing from an open wound: effectively accomplishes the accelerated clotting of blood
